Numbers after ± are expanded uncertainties.
Experiment: wn = mass fraction of the nth substance listed
Conditions: 298 K, 100 kPa, Liquid; for mass density: Vibrating tube method

CCCC(=O)O [butanoic acid] + O
Conditions	mass density [kg/m3]
w1 = 6.86e-05	997.07 ± 10
w1 = 0.000154	997.07 ± 10
w1 = 0.000352	997.09 ± 10
w1 = 0.000628	997.08 ± 10
w1 = 0.000783	997.12 ± 10
w1 = 0.00206	997.2 ± 10
w1 = 0.0023	997.22 ± 10
w1 = 0.00429	997.33 ± 10
w1 = 0.00704	997.57 ± 10
w1 = 0.00763	997.62 ± 10
w1 = 0.0151	998.25 ± 10
w1 = 0.0157	998.3 ± 10
w1 = 0.0285	999.62 ± 10
w1 = 0.0453	1001.89 ± 10
w1 = 0.0508	1002.79 ± 10
w1 = 0.0589	1004.25 ± 10
w1 = 0.073	1000.5 ± 10
w1 = 0.087	1001.01 ± 10
w1 = 0.0974	1014.17 ± 10

CCCCCCCCCC(=O)[O-].CCCCCCCCCCCCCC[P+](CCCCCC)(CCCCCC)CCCCCC [trihexyltetradecylphosphonium decanoate] + O
Conditions	viscosity [mPa·s]
Cone and plate viscometry, w2 = 0.162	96.1 ± 10

Conditions	mass density [kg/m3]
w2 = 0.162	900 ± 9
